Assay results taken from publication PMC10253577, “Conformationally Restricted Glycoconjugates Derived from Arylsulfonamides and Coumarins: New Families of Tumour-Associated Carbonic Anhydrase Inhibitors” (International Journal of Molecular Sciences, 2023).
Like-named read-outs stand apart in the source and are kept apart here. Blank lines part the entries; values can stand above or below the molecule they belong to.

Assays:
[1] = target: hCA IV (Homo sapiens, UniProt P22748); assay: stopped-flow CO2 hydration assay, hCA IV; conditions: mean from three assays, errors ±5–10%
Chain of hCA IV (P22748 19-312): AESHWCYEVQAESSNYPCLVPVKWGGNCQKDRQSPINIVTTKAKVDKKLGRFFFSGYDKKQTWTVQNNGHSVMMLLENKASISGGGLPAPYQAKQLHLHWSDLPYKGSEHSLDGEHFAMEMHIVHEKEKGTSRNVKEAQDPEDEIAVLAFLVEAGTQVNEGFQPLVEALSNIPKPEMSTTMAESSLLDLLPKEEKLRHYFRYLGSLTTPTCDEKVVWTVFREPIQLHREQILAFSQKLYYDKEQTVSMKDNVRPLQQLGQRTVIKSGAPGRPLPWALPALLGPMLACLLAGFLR
Method: (§3) The panel of CA-directed compounds prepared herein were assessed in vitro against a series of isoforms of human CA with relevant therapeutic interest.
(§4) The choice of such isoforms will provide information about selectivity against tumour-associated CA IX and XII compared to other relevant CAs.
(§5) The inhibitory properties of title compounds against CAs were determined using the stopped-flow CO2 hydrase assay, as previously reported [46].

[2] = tested on: T-47D (Breast); assay: antiproliferative assay (NCI protocol), T-47D; assay type: cell-based; conditions: Homo sapiens, T47D; multidrug-resistant cell line, mean ± SD
From the text: (§1) The compounds prepared herein were subjected to in vitro testing as potential antiproliferative agents against a panel of six human solid tumour cell lines, following minor modifications of the protocol from the US National Cancer Institute (NCI). They can be categorized into two groups: drug-sensitive cell lines (A549, HBL-100, HeLa, SW1573) and multidrug resistant cell lines (T-47D, WiDr). […] Ph-derived thiourea 21e and imidazolidine-2-thione 24f were not included in the study.
(§2) Minor modifications of the US National Cancer Institute (NCI) protocol were used.

[3] = tested on: A549 (Lung, Non-Small); assay: antiproliferative assay (NCI protocol), A549; assay type: cell-based; conditions: Homo sapiens, drug-sensitive cell line, mean ± SD
From the text: as §1, §2

[4] = tested on: SW1573 (Lung, Non-Small); assay: antiproliferative assay (NCI protocol), SW1573; assay type: cell-based; conditions: Homo sapiens, drug-sensitive cell line, mean ± SD
From the text: as §1, §2

[5] = tested on: HeLa (Cervix); assay: antiproliferative assay (NCI protocol), HeLa; assay type: cell-based; conditions: Homo sapiens, drug-sensitive cell line, mean ± SD
From the text: as §1, §2

[6] = tested on: WiDr (Colon); assay: antiproliferative assay (NCI protocol), WiDr; assay type: cell-based; conditions: Homo sapiens, multidrug-resistant cell line, mean ± SD
From the text: as §1, §2

[7] = tested on: HBL-100 (Breast); assay: antiproliferative assay (NCI protocol), HBL-100; assay type: cell-based; conditions: Homo sapiens, drug-sensitive cell line, mean ± SD
From the text: as §1, §2

[8] = target: T1, hCA IX (Homo sapiens, UniProt Q16790); assay: stopped-flow CO2 hydration assay, hCA IX; conditions: for S.I. I/IX: Ki (CA I)/Ki (CA IX); for S.I. II/IX: Ki (CA II)/Ki (CA IX)
Method: as §3, §4, §5

[9] = target: T1, hCA IX; design: made in house; conditions: previously reported thioureas; cited from earlier work
[10] = target: hCA XII (Homo sapiens, UniProt O43570); assay: stopped-flow CO2 hydration assay, hCA XII; conditions: for S.I. I/XII: Ki (CA I)/Ki (CA XII); for S.I. II/XII: Ki (CA II)/Ki (CA XII)
Chain of hCA XII (O43570 25-354): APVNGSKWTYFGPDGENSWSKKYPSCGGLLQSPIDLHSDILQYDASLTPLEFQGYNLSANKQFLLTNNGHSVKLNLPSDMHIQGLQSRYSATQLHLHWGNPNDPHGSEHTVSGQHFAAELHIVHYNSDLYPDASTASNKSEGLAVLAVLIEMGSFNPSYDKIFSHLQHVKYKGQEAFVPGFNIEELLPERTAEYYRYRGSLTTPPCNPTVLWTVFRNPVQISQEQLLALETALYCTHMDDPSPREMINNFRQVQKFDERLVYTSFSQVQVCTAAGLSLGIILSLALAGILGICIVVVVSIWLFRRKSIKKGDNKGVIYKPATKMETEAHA
Method: as §3, §4, §5

[11] = target: hCA I (Homo sapiens, UniProt P00915); assay: stopped-flow CO2 hydration assay, hCA I
Chain of hCA I (P00915 whole entry): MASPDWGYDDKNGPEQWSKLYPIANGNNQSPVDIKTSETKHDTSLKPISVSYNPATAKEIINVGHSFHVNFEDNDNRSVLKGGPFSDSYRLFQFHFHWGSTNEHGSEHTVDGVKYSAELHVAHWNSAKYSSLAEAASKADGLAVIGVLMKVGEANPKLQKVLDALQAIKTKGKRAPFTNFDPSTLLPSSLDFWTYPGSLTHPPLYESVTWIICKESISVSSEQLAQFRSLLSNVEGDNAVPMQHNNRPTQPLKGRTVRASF
Method: as §3, §4, §5

[12] = target: hCA II (Homo sapiens, UniProt P00918); assay: stopped-flow CO2 hydration assay, hCA II
Method: as §3, §4, §5

[13] = tested on: panel of six human solid tumour cell lines (A549, HBL-100, HeLa, SW1573, T-47D, WiDr); assay: antiproliferative assay (NCI protocol), whole panel; assay type: cell-based
From the text: as §1, §2

SMILES: O=c1cc(-c2ccccc2)c2ccc(OCCCCN3C(=S)N[C@@H]4[C@@H](O)[C@@H]([C@H](O)CO)O[C@@H]43)cc2o1 [Compound 24e, 1-{4′-[7″-(4″-Phenyl-2″-oxo-2″H-chromen-7″-yl)oxy]butyl}-(1‴,2‴-dideoxy-α-D-glucofurano)[2,1-d]imidazolidine-2-thione]
GI50 [2]: 70 ± 23 µM
GI50 [3]: 64 ± 31 µM
GI50 [4]: 5.7 ± 1.8 µM
GI50 [5]: 31 ± 0.2 µM
GI50 [6]: 47 ± 11 µM
GI50 [7]: 23 ± 0.8 µM

SMILES: NS(=O)(=O)c1ccc(NC(=S)NC2C(O)OC(CO)C(O)C2O)cc1 (stereo not shown) [Compound 3a]
S.I. I/IX [8]: 35.1
S.I. II/IX [8]: 126
Ki [9]: 0.077 µM

SMILES: NS(=O)(=O)c1ccc(NC(=S)N[C@@H]2O[C@H](CO)[C@@H](O)[C@H](O)[C@H]2O)cc1 [Compound 1a]
S.I. I/IX [8]: 27.2
S.I. II/IX [8]: 0.02
S.I. I/XII [10]: 937
S.I. II/XII [10]: 0.9

SMILES: NS(=O)(=O)c1cccc(N2C(=S)NC3C(O)C(C(O)CO)OC32)c1 [Compound 8b, 1-(3′-Sulfonamidophenyl)-(1″,2″-dideoxy-α-D-glucofurano)[2,1-d]imidazolidine-2-thione]
Ki [1]: 0.0451 µM

SMILES: NS(=O)(=O)c1ccc(NC(=S)N[C@H]2C(O)O[C@H](CO)[C@H](O)[C@@H]2O)cc1 (stereo partly shown) [Compound 4a]
S.I. I/IX [8]: 48.6
S.I. II/IX [8]: 104
Ki [9]: 0.074 µM

SMILES: NS(=O)(=O)c1cccc(NC(=S)NC2C(O)OC(CO)C(O)C2O)c1 (stereo not shown) [Compound 3b]
Ki [9]: 0.009 µM

SMILES: NS(=O)(=O)c1ccc(CCNC(=S)N[C@@H]2O[C@H](CO)[C@H](O)[C@H](O)[C@H]2O)cc1 [Compound 2c]
S.I. I/IX [8]: 2067.9
S.I. II/IX [8]: 3.3
S.I. I/XII [10]: 568
S.I. II/XII [10]: 0.9

SMILES: NS(=O)(=O)c1ccc(N2C(=S)NC3C(O)C(C(O)CO)OC32)cc1 [Compound 8a, 1-(4′-Sulfonamidophenyl)-(1″,2″-dideoxy-α-D-glucofurano)[2,1-d]imidazolidine-2-thione]
Ki [1]: 0.348 µM

SMILES: O=c1cc(-c2ccccc2)c2ccc(OCCCCCCN3C(=S)N[C@@H]4[C@@H](O)[C@@H]([C@H](O)CO)O[C@@H]43)cc2o1 [Compound 24f, 1-{6′-[7″-(4″-Phenyl-2″-oxo-2″H-chromen-7″-yl)oxy]hexyl}-(1‴,2‴-dideoxy-α-D-glucofurano)[2,1-d]imidazolidine-2-thione]
GI50 ([13]; maximum concentration tested 100 µM, read-out: GI50, all tested cell lines): > 100 µM

SMILES: NS(=O)(=O)c1ccc(CCNC(=S)N[C@@H]2O[C@H](CO)[C@@H](O)[C@H](O)[C@H]2O)cc1 [Compound 1c]
S.I. I/IX [8]: 1.0
S.I. II/IX [8]: 12.4
S.I. I/XII [10]: 0.9
S.I. II/XII [10]: 11.1

SMILES: NS(=O)(=O)c1cccc(NC(=S)N[C@H]2C(O)O[C@H](CO)[C@H](O)[C@@H]2O)c1 (stereo partly shown) [Compound 4b]
S.I. I/IX [8]: 102.4
S.I. II/IX [8]: 22.4
Ki [9]: 0.042 µM

SMILES: CO[C@H]1O[C@H](CO)[C@@H](O)[C@H](O)[C@H]1NC(=S)Nc1ccc2c(C)cc(=O)oc2c1 [Compound C00016]
GI50 [2]: > 100 µM
GI50 [3]: 79 ± 36 µM
GI50 [4]: 79 ± 37 µM
GI50 [5]: 83 ± 30 µM
GI50 [6]: > 100 µM
GI50 [7]: 86 ± 25 µM

SMILES: NS(=O)(=O)c1ccc(NC(=S)N[C@@H]2O[C@H](CO)[C@H](O)[C@H](O)[C@H]2O)cc1 [Compound 2a]
S.I. I/IX [8]: 977.1
S.I. II/IX [8]: 31.7
S.I. I/XII [10]: 340
S.I. II/XII [10]: 11.0

Further lines, with some results ahead:

Ki [1]: 4.57 µM
SMILES: NS(=O)(=O)c1ccc(N2C(=S)NC3C(O)C(C(O)CO)OC32)cc1 [Compound 9a, 1-(4′-Sulfonamidophenyl)-(1″,2″-dideoxy-α-D-galactofurano)[2,1-d]imidazolidine-2-thione]

Ki [8]: 0.106 µM
S.I. I/IX [8]: >945
S.I. II/IX [8]: >945
Ki [10]: 0.228 µM
S.I. I/XII [10]: >439
S.I. II/XII [10]: >439
Ki [11]: > 100 µM
Ki [12]: > 100 µM
melting point: 165 °C
SMILES: CO[C@H]1O[C@H](CO)[C@@H](O)[C@H](O)[C@H]1NC(=S)NCCCCOc1ccc2c(-c3ccccc3)cc(=O)oc2c1 [Compound 21e, N-(Methyl 2-deoxy-α-D-glucopyranosid-2-yl)-N′-{4′-[7″-(4″-phenyl-2″-oxo-2″H-chromen-7″-yl)oxy]butyl}thiourea]

Ki [1]: 27.3 µM
SMILES: NS(=O)(=O)c1cccc(N2C(=S)NC3C(O)C(C(O)CO)OC32)c1 [Compound 9b, 1-(3′-Sulfonamidophenyl)-(1″,2″-dideoxy-α-D-galactofurano)[2,1-d]imidazolidine-2-thione]

Ki [8]: 0.116 µM
S.I. I/IX [8]: >858
S.I. II/IX [8]: 148
Ki [10]: 0.164 µM
S.I. I/XII [10]: >610
S.I. II/XII [10]: 106
Ki [11]: > 100 µM
Ki [12]: 17.3 µM
melting point: 148 °C
SMILES: CO[C@H]1O[C@H](CO)[C@@H](O)[C@H](O)[C@H]1NC(=S)NCCCCCCOc1ccc2c(-c3ccccc3)cc(=O)oc2c1 [Compound 21f, N′-(Methyl 2-deoxy-α-D-glucopyranosid-2-yl)-N′-{6′-[7″-(4″-phenyl-2″-oxo-2″H-chromen-7″-yl)oxy]hexyl}thiourea]
GI50 [2]: 30 ± 7.4 µM
GI50 [3]: 34 ± 4 µM
GI50 ([13]; the five cell lines other than SW1573, read-out: GI50, other five lines): 23 to 36 µM
GI50 [4]: 9.7 µM
GI50 [5]: 25 ± 8 µM
GI50 [6]: 36 ± 16 µM
GI50 [7]: 23 ± 3.2 µM

Ki [1]: 1.05 µM
SMILES: NS(=O)(=O)c1ccc(CCN2C(=S)NC3C(O)C(C(O)CO)OC32)cc1 [Compound 8c, 1-[2′-(4″-Sulfonamidophenyl)]ethyl-(1‴,2‴-dideoxy-α-D-glucofurano)[2,1-d]imidazolidine-2-thione]

Ki [11]: > 100 µM
Ki [12]: > 100 µM
SMILES: Cc1cc(=O)oc2cc(OCCCCCCN3C(=S)N[C@@H]4[C@@H](O)[C@@H]([C@H](O)CO)O[C@@H]43)ccc12 [Compound 24c, 1-{6′-[7″-(4″-Methyl-2″-oxo-2″H-chromen-7″-yl)oxy]hexyl}-(1‴,2‴-dideoxy-α-D-glucofurano)[2,1-d]imidazolidine-2-thione]

Ki [11]: > 100 µM
Ki [12]: > 100 µM
SMILES: Cc1cc(=O)oc2cc(OCCCCCCN3C(=S)NC4C(O)C(C(O)CO)OC43)ccc12 [Compound 26, 1-{4′-[7″-(4″-Methyl-2″-oxo-2″H-chromen-7″-yl)oxy]hexyl}-(1‴,2‴-dideoxy-α-D-galactofurano)[2,1-d]imidazolidine-2-thione]
